The NIST ThermoML archive (doi:10.1016/j.fluid.2018.05.028)

Assay: xn = mol fraction of the nth substance listed
Conditions: 101 kPa, Liquid; for viscosity: Concentric cylinders viscometry; for speed of sound: Single path-length method; for mass density: Vibrating tube method

CCCCCCCCCCCCCCCC [hexadecane] + CCCO
Conditions	mass density [kg/m3]	speed of sound [m/s]	viscosity [mPa·s]
293.15 K, x2 = 0	773.35	1357.4	3.408
293.15 K, x2 = 0.1	773.48	1349.3	3.214
293.15 K, x2 = 0.2	774.05	1342.3	3.093
293.15 K, x2 = 0.3	774.88	1334.9	2.99
293.15 K, x2 = 0.4	776.01	1326.8	2.916
293.15 K, x2 = 0.5	777.51	1317.5	2.845
293.15 K, x2 = 0.6	779.56	1306.4	2.776
293.15 K, x2 = 0.7	782.34	1293.2	2.671
293.15 K, x2 = 0.8	786.35	1275.7	2.541
293.15 K, x2 = 0.9	792.43	1252.8	2.388
298.15 K, x2 = 0	769.87	1338.5	3.035
298.15 K, x2 = 0.1	769.92	1330.3	2.858
298.15 K, x2 = 0.2	770.46	1323.2	2.754
298.15 K, x2 = 0.3	771.25	1315.8	2.665
298.15 K, x2 = 0.4	772.34	1307.7	2.596
298.15 K, x2 = 0.5	773.81	1298.5	2.526
298.15 K, x2 = 0.6	775.81	1287.5	2.463
298.15 K, x2 = 0.7	778.55	1274.5	2.374
298.15 K, x2 = 0.8	782.5	1257.4	2.264
298.15 K, x2 = 0.9	788.52	1234.9	2.131
303.15 K, x2 = 0	766.4	1319.8	2.708
303.15 K, x2 = 0.1	766.38	1311.4	2.55
303.15 K, x2 = 0.2	766.87	1304.3	2.45
303.15 K, x2 = 0.3	767.62	1296.9	2.376
303.15 K, x2 = 0.4	768.67	1288.8	2.314
303.15 K, x2 = 0.5	770.09	1279.7	2.244
303.15 K, x2 = 0.6	772.04	1268.8	2.187
303.15 K, x2 = 0.7	774.73	1256	2.108
303.15 K, x2 = 0.8	778.64	1239.2	2.012
303.15 K, x2 = 0.9	784.59	1217.2	1.89
308.15 K, x2 = 0	762.95	1301.3	2.432
308.15 K, x2 = 0.1	762.83	1292.8	2.288
308.15 K, x2 = 0.2	763.27	1285.6	2.201
308.15 K, x2 = 0.3	763.98	1278.2	2.13
308.15 K, x2 = 0.4	764.98	1270.1	2.073
308.15 K, x2 = 0.5	766.36	1261	2.01
308.15 K, x2 = 0.6	768.26	1250.2	1.952
308.15 K, x2 = 0.7	770.89	1237.6	1.88
308.15 K, x2 = 0.8	774.74	1221.1	1.795
308.15 K, x2 = 0.9	780.63	1199.5	1.687
313.15 K, x2 = 0	759.49	1283.1	2.199
313.15 K, x2 = 0.1	759.29	1274.3	2.067
313.15 K, x2 = 0.2	759.67	1267.1	1.989
313.15 K, x2 = 0.3	760.33	1259.6	1.925
313.15 K, x2 = 0.4	761.29	1251.5	1.871
313.15 K, x2 = 0.5	762.61	1242.4	1.812
313.15 K, x2 = 0.6	764.45	1231.7	1.756
313.15 K, x2 = 0.7	767.03	1219.3	1.691
313.15 K, x2 = 0.8	770.82	1203.1	1.614
313.15 K, x2 = 0.9	776.63	1182	1.515
318.15 K, x2 = 0	756.05	1265	1.996
318.15 K, x2 = 0.1	755.74	1256	1.874
318.15 K, x2 = 0.2	756.07	1248.7	1.8
318.15 K, x2 = 0.3	756.67	1241.2	1.743
318.15 K, x2 = 0.4	757.58	1233	1.69
318.15 K, x2 = 0.5	758.84	1224	1.634
318.15 K, x2 = 0.6	760.62	1213.3	1.58
318.15 K, x2 = 0.7	763.14	1201.1	1.519
318.15 K, x2 = 0.8	766.85	1185.1	1.448
318.15 K, x2 = 0.9	772.59	1164.4	1.357
323.15 K, x2 = 0	752.61	1247.1	1.823
323.15 K, x2 = 0.1	752.19	1237.9	1.708
323.15 K, x2 = 0.2	752.45	1230.5	1.639
323.15 K, x2 = 0.3	753	1222.9	1.587
323.15 K, x2 = 0.4	753.84	1214.7	1.537
323.15 K, x2 = 0.5	755.05	1205.6	1.484
323.15 K, x2 = 0.6	756.76	1195.1	1.432
323.15 K, x2 = 0.7	759.22	1182.9	1.375
323.15 K, x2 = 0.8	762.85	1167.2	1.308
323.15 K, x2 = 0.9	768.51	1147	1.223
328.15 K, x2 = 0	749.18	1229.3	1.671
328.15 K, x2 = 0.1	748.64	1220	1.565
328.15 K, x2 = 0.2	748.83	1212.4	1.499
328.15 K, x2 = 0.3	749.32	1204.7	1.452
328.15 K, x2 = 0.4	750.09	1196.5	1.403
328.15 K, x2 = 0.5	751.23	1187.4	1.352
328.15 K, x2 = 0.6	752.86	1176.8	1.303
328.15 K, x2 = 0.7	755.25	1164.8	1.248
328.15 K, x2 = 0.8	758.8	1149.4	1.186
328.15 K, x2 = 0.9	764.37	1129.5	1.106
333.15 K, x2 = 0	745.74	1211.8	1.537
333.15 K, x2 = 0.1	745.09	1202.2	1.438
333.15 K, x2 = 0.2	745.2	1194.5	1.375
333.15 K, x2 = 0.3	745.61	1186.7	1.331
333.15 K, x2 = 0.4	746.31	1178.5	1.284
333.15 K, x2 = 0.5	747.38	1169.2	1.237
333.15 K, x2 = 0.6	748.93	1158.7	1.19
333.15 K, x2 = 0.7	751.24	1146.8	1.138
333.15 K, x2 = 0.8	754.7	1131.5	1.079
333.15 K, x2 = 0.9	760.17	1112.1	1.004
338.15 K, x2 = 0	742.31	1194.4	1.421
338.15 K, x2 = 0.1	741.53	1184.6	1.329
338.15 K, x2 = 0.2	741.55	1176.7	1.266
338.15 K, x2 = 0.3	741.89	1168.8	1.226
338.15 K, x2 = 0.4	742.52	1160.5	1.179
338.15 K, x2 = 0.5	743.5	1151.2	1.134
338.15 K, x2 = 0.6	744.97	1140.7	1.087
338.15 K, x2 = 0.7	747.19	1128.8	1.039
338.15 K, x2 = 0.8	750.55	1113.7	0.9835
338.15 K, x2 = 0.9	755.91	1094.6	0.9119
343.15 K, x2 = 0	738.88	1177.5	1.316
343.15 K, x2 = 0.1	737.98	1167.2	1.23
343.15 K, x2 = 0.2	737.89	1159.1	1.168
343.15 K, x2 = 0.3	738.15	1151.1	1.131
343.15 K, x2 = 0.4	738.69	1142.7	1.085
343.15 K, x2 = 0.5	739.59	1133.3	1.042
343.15 K, x2 = 0.6	740.96	1122.7	0.9894
343.15 K, x2 = 0.7	743.08	1110.9	0.9461
343.15 K, x2 = 0.8	746.33	1095.9	0.8985
343.15 K, x2 = 0.9	751.58	1077.1	0.8305
